Experiments:
CLK1 = CLK1 (Homo sapiens, UniProt P49759); experiment: KINOMEscan: CLK1; type: binding; conditions: 1000 nM, read-out: Percent Control
TRKA = TRKA (Homo sapiens, UniProt P04629); experiment: KINOMEscan: TRKA; type: binding; conditions: 100 nM, read-out: Percent Control
[1] = test system: GABAA, Flunitrazepam, Central; experiment: Eurofins Diversity Panel; type: binding; conditions: rat, Conc. 10 μM
MUSK = MUSK (Homo sapiens, UniProt O15146); experiment: KINOMEscan: MUSK; type: binding; conditions: 1000 nM, read-out: Percent Control
CLL patient samples = experiment: Western blot of CLL patient samples; type: cell-based, human; conditions: 1 µM, 8 h
Protocol: Lysate concentration was quantified using Pierce™ BCA Protein Assay Kit (ThermoFiser Scientific – cat. 23225) and proteins were analyzed via immunoblot. A full list of antibodies may be found in the supplementary methods section. All images are representative of three independent experiments.
P-TEFb’s role in regulating transcription through POLII CTD phosphorylation is a canonical function of this complex. To interrogate the transcriptional changes associated with VIP152 treatment, we treated B-cells, isolated from four patients with treatment-naïve CLL, with 1 µM VIP152 or DMSO for two hours followed by fluorescence-assisted cell sorting for 500 live (Sytox^−), CD45^+/CD5^+/CD19^+ cells (Fig. 3A). Our group has previously defined an analysis pipeline, named CLEAR, which identifies evenly distributed reads for differentially expressed gene (DEG) analysis. […] When we looked at the expression of these differentially abundant genes via an unsupervised clustered heatmap, we noted that there was high concordance between the patient samples with clustering dependent on treatment group (Fig. 3C). The treatment did induce decreased transcript abundance of genes previously reported to be controlled by CDK9 activity, namely JUNB, BTG1, and MCL1 [45, 46]. Downregulation of the anti-apoptotic MCL1 (LFC: −1.231056 & p-value = 0.02) likely contributes to the susceptibility of primary CLL cells to apoptosis (Fig. 2F, G). […] It has been established that AU-rich element (ARE) mRNA molecules are under tight temporal regulation and control a variety of cellular processes. Moreover, the relationship between P-TEFb mediated transcription and ARE-bearing mRNA has previously been described. […] We appreciate from our limiting-cell RNA sequencing experiments that the loss of tristetrapolin (ZFP36) transcripts (LFC: −4.02; adjusted p-value: 7.97*10^−40) and the upregulation of ribosomal transcripts, likely correspond to a possible compensatory mechanism by which these cells attempt to improve translational output and maximize transcript maintenance in response to VIP152-induced transcriptional shutdown. […] We looked at transcripts which had been shown by photoactivatable ribonucleoside cross-linking and immunoprecipitation (PAR-CLIP) to interact with ZFP36 [50]. […]
Fig. 3 VIP152 induces rapid transcriptomic changes. […] E–G 7 CLL patient samples were treated for 8 h with 1 µM VIP152 and then analyzed for protein expression by western blot (E, F) and ZFP36, ZFP36L1, and ZFP36L2 expression by qRT-PCR (G). H–L 5 CLL patient samples were treated for 8 h with 1 µM VIP152 and then supplemented with 500 nM Actinomycin-D. RNA was taken at varying timepoints and analyzed via qRT-PCR. M mRNA half-lives of analyzed transcripts in (H–L) as determined by nonlinear regression using a one-phase decay method.

Chain of TRKA (P04629 33-796): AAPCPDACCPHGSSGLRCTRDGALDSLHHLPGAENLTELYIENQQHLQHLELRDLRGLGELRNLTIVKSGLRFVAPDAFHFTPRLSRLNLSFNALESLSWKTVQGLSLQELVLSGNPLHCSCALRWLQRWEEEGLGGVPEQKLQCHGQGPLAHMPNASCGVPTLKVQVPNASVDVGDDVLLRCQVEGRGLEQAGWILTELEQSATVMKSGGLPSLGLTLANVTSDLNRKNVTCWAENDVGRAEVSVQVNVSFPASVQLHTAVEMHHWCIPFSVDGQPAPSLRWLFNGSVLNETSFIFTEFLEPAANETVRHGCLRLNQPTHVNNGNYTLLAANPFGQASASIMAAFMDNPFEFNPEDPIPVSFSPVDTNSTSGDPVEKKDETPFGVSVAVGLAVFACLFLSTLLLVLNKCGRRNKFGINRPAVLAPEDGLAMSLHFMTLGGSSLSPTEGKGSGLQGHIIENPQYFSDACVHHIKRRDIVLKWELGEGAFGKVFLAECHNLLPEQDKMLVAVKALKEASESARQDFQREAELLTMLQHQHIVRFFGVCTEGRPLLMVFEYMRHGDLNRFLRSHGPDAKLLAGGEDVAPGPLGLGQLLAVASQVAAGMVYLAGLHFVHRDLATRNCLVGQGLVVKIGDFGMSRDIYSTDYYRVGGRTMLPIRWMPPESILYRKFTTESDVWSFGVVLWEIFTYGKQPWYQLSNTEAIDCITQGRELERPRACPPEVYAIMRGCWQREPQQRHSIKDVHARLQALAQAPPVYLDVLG
Chain of CLK1 (P49759 whole entry): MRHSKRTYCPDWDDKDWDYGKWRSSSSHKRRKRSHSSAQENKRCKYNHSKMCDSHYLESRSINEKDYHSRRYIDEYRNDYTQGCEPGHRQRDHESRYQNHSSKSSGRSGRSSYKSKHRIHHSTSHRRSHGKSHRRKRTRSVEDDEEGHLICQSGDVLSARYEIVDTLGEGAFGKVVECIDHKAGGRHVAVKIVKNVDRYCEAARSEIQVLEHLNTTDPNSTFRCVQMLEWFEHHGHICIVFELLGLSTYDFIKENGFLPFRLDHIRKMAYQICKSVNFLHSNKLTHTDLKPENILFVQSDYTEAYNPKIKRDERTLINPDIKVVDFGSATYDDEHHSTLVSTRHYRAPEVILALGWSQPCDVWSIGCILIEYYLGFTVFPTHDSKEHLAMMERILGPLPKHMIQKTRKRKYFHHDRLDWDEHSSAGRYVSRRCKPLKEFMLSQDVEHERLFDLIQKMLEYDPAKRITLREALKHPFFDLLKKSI
Chain of MUSK (O15146 24-869): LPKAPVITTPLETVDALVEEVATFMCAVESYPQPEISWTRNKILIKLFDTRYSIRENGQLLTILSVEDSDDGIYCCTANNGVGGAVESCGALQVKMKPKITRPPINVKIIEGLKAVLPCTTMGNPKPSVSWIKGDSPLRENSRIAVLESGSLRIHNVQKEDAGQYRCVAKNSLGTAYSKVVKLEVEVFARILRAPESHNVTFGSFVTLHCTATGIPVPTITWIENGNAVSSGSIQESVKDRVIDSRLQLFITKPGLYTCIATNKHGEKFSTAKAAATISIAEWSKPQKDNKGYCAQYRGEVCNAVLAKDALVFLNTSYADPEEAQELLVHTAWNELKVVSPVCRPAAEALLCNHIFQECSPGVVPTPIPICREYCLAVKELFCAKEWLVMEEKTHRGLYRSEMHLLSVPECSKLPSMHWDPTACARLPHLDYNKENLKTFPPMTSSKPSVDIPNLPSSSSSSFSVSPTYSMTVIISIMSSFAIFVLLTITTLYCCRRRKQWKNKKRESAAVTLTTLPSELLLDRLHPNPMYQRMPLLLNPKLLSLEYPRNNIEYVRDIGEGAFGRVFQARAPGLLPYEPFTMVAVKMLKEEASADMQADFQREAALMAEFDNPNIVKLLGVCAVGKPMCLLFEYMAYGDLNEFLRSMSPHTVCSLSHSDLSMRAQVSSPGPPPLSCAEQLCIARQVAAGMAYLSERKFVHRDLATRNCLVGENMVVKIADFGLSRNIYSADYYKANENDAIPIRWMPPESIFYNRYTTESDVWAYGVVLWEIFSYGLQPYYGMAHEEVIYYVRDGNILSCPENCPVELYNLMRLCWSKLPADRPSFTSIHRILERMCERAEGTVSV

In the case of `COc1cc(F)ccc1-c1cc(Nc2cc(CS(C)(=N)=O)ccn2)ncc1F` (centres unmarked) [VIP152], the remaining binding at 1 µM (CLK1) is reported as 71%, the remaining binding at 0.1 µM (TRKA) is reported as 65% and the “% Inh.” value [1] is reported as 6%. The remaining binding at 1 µM (MUSK) was 58%, the BTG1 protein (CLL patient samples) was “not” and the JUNB protein (CLL patient samples) was “decrease”. For the same compound, the MCL1 protein (CLL patient samples) was “decrease” and the “expression of tristetrapolin (ZFP36)” value (CLL patient samples; seven CLL patient samples) was “decreased expression”.
